Data: patent US10292412B2, “High solubility natural sweetener compositions” (KRAFT FOODS GLOBAL BRANDS LLC, priority 2012, dated 2019)
Where “and” joins values, the source holds several entries; their conditions need not be identical. Equal values may be shown once.

How the values were obtained:
Type in all cases: physicochemical
[1] = Example 2: solubility of rebaudioside A in liquid concentrates with varying water, acid and alcohol; set-up: scale not given here
Protocol: Liquid concentrate formulations were prepared including varying levels of rebaudioside A, water, alcohol, and acid. The solubility was measured at various concentrations of each of the components and the results are included in the tables below: […]

[2] = Example 3: solubility (1-5 scale) after seven days; ambient water, heated water or 0.45 micron filtered rebaudioside A solutions with citric acid and ethanol
Protocol: Several solutions including rebaudioside A were prepared to test the effect of heating and filtering on the solubility of rebaudioside A. The formulations are as follows: […]
The solutions for the ambient water experimentation were prepared by dissolving rebaudioside A in ambient water (about 68° F. to about 77° F.) using a magnetic stir bar. Citric acid and ethanol were then dissolved into the solution using a magnetic stir bar.
The solutions for the heated water experimentation were prepared by heating water to 150° F. Rebaudioside A was added and dissolved using a magnetic stir bar. The solution was removed from the heat and citric acid was added and dissolved by a magnetic stir bar. After the solution cooled to 100° F. or below, ethanol was added and stirred into the solution by a magnetic stirrer.
The solutions for the filtered rebaudioside A experimentation were prepared by first dissolving rebaudioside A in ambient water (about 68° F. to about 77° F.) using a magnetic stir bar. The solution was then passed through a 0.45 micron filter. Citric acid and ethanol were dissolved into the solution using a magnetic stir bar.
Solubility was measured according to the 1-5 scale in the table above after seven days. […]

[3] = Example 6: solubility rating of rebaudioside A liquid concentrate after 33 months at 35° F.; settings: water 62.27%, Citric Acid 16.96%, Potassium Citrate 1.4%, Flavor (80%-90% Ethanol) 11%, Reb A 4.4%, Malic Acid 3.89%, Shade 0.08%
Protocol: A liquid concentrate sample was prepared using rebaudioside A from Cargill. Samples were measured for solubility as defined in sections 46-47. The samples were rated as 3 on the scale after 33 months at 35° F. The formula is included in the table below: […]

C=C1C[C@@]23CC[C@H]4[C@@](C)(CCC[C@@]4(C)C(=O)O[C@@H]4O[C@H](CO)[C@@H](O)[C@H](O)[C@H]4O)[C@@H]2CC[C@]1(O[C@@H]1O[C@H](CO)[C@@H](O)[C@H](O[C@@H]2O[C@H](CO)[C@@H](O)[C@H](O)[C@H]2O)[C@H]1O[C@@H]1O[C@H](CO)[C@@H](O)[C@H](O)[C@H]1O)C3 [Reb A, rebaudioside A]
Response 1 Solubility ([1]; Water/Phosphoric Acid/Ethanol (190 Proof)/RebA 92.44/0.00/0.00/7.56 ml): 5 | Response 1 Solubility ([1]; Water/Phosphoric Acid/Ethanol (190 Proof)/RebA 99.40/0.00/0.00/0.60 ml): 3 and 2 | Response 1 Solubility ([1]; Water/Tartaric Acid/Ethanol (190 Proof)/RebA 18.70369333/21.97/51.77/7.56 ml): 1 | Response 1 Solubility ([1]; Water/Tartaric Acid/Ethanol (190 Proof)/RebA 19.2674479/6.63/71.76/2.34 ml): 2 | Response 1 Solubility ([1]; Water/Tartaric Acid/Ethanol (190 Proof)/RebA 19.2674479/14.30/62.35/4.08 ml): 2 | Response 1 Solubility ([1]; Water/Tartaric Acid/Ethanol (190 Proof)/RebA 30.1664432/27.48/41.75/0.60 ml): 1 | Response 1 Solubility ([1]; Water/Tartaric Acid/Ethanol (190 Proof)/RebA 30.81333333/4.93/56.70/7.56 ml): 2 | Response 1 Solubility ([1]; Water/Tartaric Acid/Ethanol (190 Proof)/RebA 33.13173333/0.00/66.26/0.60 ml): 1 | Response 1 Solubility ([1]; Water/Tartaric Acid/Ethanol (190 Proof)/RebA 33.2952179/19.41/41.47/5.82 ml): 1 | Response 1 Solubility ([1]; Water/Tartaric Acid/Ethanol (190 Proof)/RebA 37.40738667/29.15/25.88/7.56 ml): 1 | Response 1 Solubility ([1]; Water/Tartaric Acid/Ethanol (190 Proof)/RebA 39.9320216/13.74/45.72/0.60 ml): 1 | Response 1 Solubility ([1]; Water/Tartaric Acid/Ethanol (190 Proof)/RebA 47.9588/0.00/47.96/4.08 ml): 1 | Response 1 Solubility ([1]; Water/Tartaric Acid/Ethanol (190 Proof)/RebA 49.4338911/26.16/22.06/2.34 ml): 1 | Response 1 Solubility ([1]; Water/Tartaric Acid/Ethanol (190 Proof)/RebA 49.51702667/12.11/30.81/7.56 ml): 1 | Response 1 Solubility ([1]; Water/Tartaric Acid/Ethanol (190 Proof)/RebA 57.8023437/16.05/22.06/4.08 ml): 1 | Response 1 Solubility ([1]; Water/Tartaric Acid/Ethanol (190 Proof)/RebA 60.3328864/39.06/0.00/0.60 ml): 1 | Response 1 Solubility ([1]; Water/Tartaric Acid/Ethanol (190 Proof)/RebA 61.92/9.00/25.00/4.08 ml): 2 | Response 1 Solubility ([1]; Water/Tartaric Acid/Ethanol (190 Proof)/RebA 65.18/8.00/21.00/5.82 ml): 3 | Response 1 Solubility ([1]; Water/Tartaric Acid/Ethanol (190 Proof)/RebA 65.44/8.00/19.00/7.56 ml): 4 | Response 1 Solubility ([1]; Water/Tartaric Acid/Ethanol (190 Proof)/RebA 65.4874479/6.63/22.06/5.82 ml): 4 | Response 1 Solubility ([1]; Water/Tartaric Acid/Ethanol (190 Proof)/RebA 66.26346667/0.00/33.13/0.60 ml): 1 | Response 1 Solubility ([1]; Water/Tartaric Acid/Ethanol (190 Proof)/RebA 68.22072/24.22/0.00/7.56 ml): 2 | Response 1 Solubility ([1]; Water/Tartaric Acid/Ethanol (190 Proof)/RebA 71.18/16.00/7.00/5.82 ml): 2 | Response 1 Solubility ([1]; Water/Tartaric Acid/Ethanol (190 Proof)/RebA 75.92/3.00/17.00/4.08 ml): 4 | Response 1 Solubility ([1]; Water/Tartaric Acid/Ethanol (190 Proof)/RebA 75.92/12.00/8.00/4.08 ml): 3 | Response 1 Solubility ([1]; Water/Tartaric Acid/Ethanol (190 Proof)/RebA 76.18/11.00/7.00/5.82 ml): 4 | Response 1 Solubility ([1]; Water/Tartaric Acid/Ethanol (190 Proof)/RebA 77.0697916/18.85/0.00/4.08 ml): 2 | Response 1 Solubility ([1]; Water/Tartaric Acid/Ethanol (190 Proof)/RebA 78.92/5.00/12.00/4.08 ml): 4 | Response 1 Solubility ([1]; Water/Tartaric Acid/Ethanol (190 Proof)/RebA 84.92/3.00/8.00/4.08 ml): 5 | Response 1 Solubility ([1]; Water/Tartaric Acid/Ethanol (190 Proof)/RebA 86.3744288/13.02/0.00/0.60 ml): 1 | Response 1 Solubility ([1]; Water/Tartaric Acid/Ethanol (190 Proof)/RebA 92.44/0.00/0.00/7.56 ml): 5 | Response 1 Solubility ([1]; Water/Tartaric Acid/Ethanol (190 Proof)/RebA 99.3952/0.00/0.00/0.60 ml): 2 | Response 1 Solubility ([1]; Water/acid/alcohol/RebA 96.67/0.00/0.00/3.33 ml): 5 | Response 1 Solubility ([1]; Water/acid/alcohol/RebA 97.01/0.00/0.00/2.99 ml): 5 | Response 1 Solubility ([1]; Water/acid/alcohol/RebA 97.34/0.00/0.00/2.66 ml): 5 | Response 1 Solubility ([1]; Water/acid/alcohol/RebA 97.67/0.00/0.00/2.33 ml): 5 | Response 1 Solubility ([1]; Water/acid/alcohol/RebA 98.00/0.00/0.00/2.00 ml): 5 | Response 1 Solubility ([1]; Water/acid/alcohol/RebA 98.34/0.00/0.00/1.66 ml): 5 | Response 1 Solubility ([1]; Water/acid/alcohol/RebA 98.67/0.00/0.00/1.33 ml): 5 | Response 1 Solubility ([1]; Water/acid/alcohol/RebA 99.00/0.00/0.00/1.00 ml): 5 | Response 1 Solubility ([1]; Water/acid/alcohol/RebA 99.33/0.00/0.00/0.67 ml): 2 | Response 1 Solubility ([1]; Water/acid/alcohol/RebA 99.67/0.00/0.00/0.33 ml): 1 | solubility after seven days ([2]; ambient water, 5 wt % rebaudioside A, all ethanol/acid conditions tested except high ethanol (30% by volume) and high acid (30% by weight)): crystallized | solubility after seven days ([2]; ambient water, 10 wt % rebaudioside A, high ethanol (30% by volume) and high acid (30% by weight)): failed | solubility after seven days ([2]; ambient water, filtered at 0.45 micron, 5 wt % rebaudioside A, all points except low acid/low ethanol): passed | solubility after seven days ([2]; heated water (150° F.), 5 wt % rebaudioside A, all ethanol/acid points): passed | solubility after seven days ([2]; heated water (150° F.), 10 wt % rebaudioside A, all ethanol/acid points): passed | solubility after seven days ([2]; heated water (150° F.), 15 wt % rebaudioside A, low ethanol (10%)/low acid (10%)): failed | solubility after seven days ([2]; heated water (150° F.), 15 wt % rebaudioside A, medium ethanol (20%)/low acid): failed | solubility rating on the scale [3]: 3 (a solubility of 3 may be represented by 1% to 5% v/v of pellet)
